Entries after “also recorded” stand apart in the source; their conditions may differ.
Tests used:
cIN organoids = test: Passaging of cIN organoids with Trehalose; format: cell-based, human
Experimental: For passaging cINs, cells were trypsinized by 0.05% trypsin (Thermo Fisher, Waltham, Mass., USA) supplemented with or without 10 mM Trehalose (Sigma-Aldrich, Natick, Mass., USA). After 5 minutes' incubation at 37° C., the spheres were triturated to dissociate the spheres. An equal volume of DMEM media with 10% FBS (Hyclone, Marlborough, Mass., USA) was added to neutralize Trypsin. In addition, Turbo DNase (2 U/ml, Thermo Fisher, Waltham, Mass., USA) was added to help clear released DNAs from culture. The cells were then kept in the incubator for additional 15 min to remove any sticky DNA mass released during trituration. After incubation, the cells were centrifuged and resuspended by B27GB media with ROCK inhibitor. To exclude the dead cell cluster, the resuspended cells were filtered through a cell strainer cap (35 μm nylon mesh, Corning, N.Y., USA), and plated onto a PLO/FN-coated surface (Poly-L-Ornithine, 15 ug/ml, Sigma-Aldrich, Natick; Fibronectin, 10 ug/ml, Thermo Fisher, Waltham, Mass., USA) for the subsequent experiments.

H9 cINs = test: Cryopreservation of cINs with Trehalose in freezing media; format: cell-based, human
Experimental: For cryopreservation, the trypsinized cells were resuspended in freezing media (FBS with 10% DMSO) with or without 100 mM Trehalose and were frozen slowly overnight in an insulated container at −80° C. deep freezer. After 24 hours, the stocks were moved to liquid nitrogen storage until further experiments. Frozen stocks were thawed quickly in a 37° C. water bath, transferred to 15 ml conical tubes with 5 ml media, centrifuged and resuspended in B27GB media with ROCK inhibitor for plating and further experiments.

MGE progenitors = test: KI67+ proliferating MGE progenitors after chemical treatment (immunocytochemistry and cell counting); format: cell-based; settings: for proportion of proliferating MGE progenitors (in words): 3 week-old MGE progenitors treated for a week; for Percentage of proliferating cells (Average ± SEM, N): KI67+ cells, 3 week-old MGE progenitors treated 1 week, 20 μM FdU, 1% CultureOne, 10 mM DAPT, 2 μM PD0332991 or combination (CDP)
Experimental: For chemical treatment of cINs, the differentiated progenitors were seeded on PLO/FN-coated surface at 3 weeks after differentiation, and cultured in B27GB media without or with each chemical, 20 μM FdU (Sigma-Aldrich, Natick, Mass., USA), 1% CultureOne (C, Thermo Fisher, Waltham, Mass., USA), […] (D, Sigma-Aldrich, Natick, Mass., USA), and 2 μM PD0332991 (P, Sigma-Aldrich, Natick, Mass., US), or with combination of CultureOne, DAPT and PD0332991 (CDP) for the time period designated in each Figure.
Immunocytochemistry and cell counting. cINs on coverslips were fixed using 4% paraformaldehyde (PFA, Electron Microscopy Sciences, Hatfield, Pa.) for 15 min, washed with PBS and used for staining. The spheres at different differentiation stages were fixed by 4% PFA for 15 min, rinsed with PBS, cryo-protected in the 30% sucrose (Thermo Fisher, Waltham, Mass., USA) overnight at 4° C., mounted on the chuck using the O.C.T. Compound (Thermo Fisher, Waltham, Mass., USA) and cryosectioned at 40 μm using a Leica CM1850 cryostat (Leica Biosystem, Buffalo Grove, Ill., USA). Fixed cells or sphere sections were incubated with blocking/permeablization buffer (PBS with 10% normal serum and 0.1% Triton X-100) for 10 min. The samples were then incubated in primary antibodies in antibody dilution buffer (PBS containing 2% normal serum) overnight at 4° C. After washing with PBS, cells were incubated with fluorescently labeled secondary antibodies and DAPI (Invitrogen, Waltham, Mass., USA)) in antibody dilution buffer for 1 h at room temperature. Following the PBS wash, the samples were mounted with Fluoromount-G (SouthernBiotech, Birmingham, Ala., USA).
For cell counting, multi point function in Image J software (Version 1.51 p, NIH, Bethesda, Md., USA) was used. Percentage of positive cells for each marker was calculated by dividing by DAPI-stained total nuclei number from at least 3 separate biological replicates. For each staining, a total of at least 500 cells were counted for each group.

SMILES	survival rate during passaging (cIN organoids; 6 weeks after differentiation, 10 mM Trehalose in trypsin)	increase in survival rate during passaging (cIN organoids; older organoids, after six months' differentiation)	survival of cryopreserved cINs after freeze-thaw (H9 cINs; 100 mM Trehalose in freezing media)	cIN phenotypes after freeze-thaw (H9 cINs; SOX6, GAD, β-TUBLIN three weeks after thawing)	viability during cryopreservation (H9 cINs; optimized condition, compared to the cINs passaged without cryopreservation) [%]	proportion of proliferating MGE progenitors (in words) (MGE progenitors)	Percentage of proliferating cells (Average ± SEM, N) (MGE progenitors)
OC[C@H]1O[C@H](O[C@H]2O[C@H](CO)[C@@H](O)[C@H](O)[C@H]2O)[C@H](O)[C@@H](O)[C@@H]1O [Trehalose]	significantly increased the survival rate	much more pronounced	significantly increased survival	without affecting their phenotypes	65.27±8.97	–	–
CC(=O)c1c(C)c2cnc(Nc3ccc(N4CCNCC4)cn3)nc2n(C2CCCC2)c1=O [PD0332991]	–	–	–	–	–	significantly reduced the proportion of proliferating progenitors; also recorded: effective in regulating MGE cell cycle exit	5.160 ± 1.042, 4%
C[C@H](NC(=O)Cc1cc(F)cc(F)c1)C(=O)N[C@H](C(=O)OC(C)(C)C)c1ccccc1 [DAPT]	–	–	–	–	–	significantly reduced the proportion of proliferating progenitors; also recorded: worked well to control cell cycle exit of MGE cells	8.835 ± 1.618, 4%
O=c1[nH]c(=O)n([C@H]2C[C@H](O)[C@@H](CO)O2)cc1F [FdU, 5-fluoro-2′-deoxyuridine]	–	–	–	–	–	did not influence the proportion of proliferating MGE progenitors; also recorded: not effective in reducing immature proliferating cell numbers	31.719 ± 1.486, 4%

Source: patent US20210340502A1, “Generation of Post-Mitotic Migratory Cortical Interneurons” (The McLean Hospital Corporation, priority 2018, published 2021)
